Laboratory results published in patent publication US9879303B2, “Chromogenic glucuronidase substrates and uses” (Glycosynth Limited, priority 2013, dated 2018).
Where a name gives a salt, the structure may show the parent alone.

System: E. faecalis NCTC 775
Assay: screen of strains in broth medium containing FAC
Type: cell-based
Design: key: Red, Green, Black or Purple mean strong colour; Red, Green, Black or Purple mean strong colour; Red, Green, Black or Purple mean strong colour; Red, Green, Black or Purple mean strong colour; +/− means less colour than strong; Tr means a trace of colour, less than +/−; — means no colour
Settings: 37° C. 18 hours

Row | Structure (SMILES) | colour
1 | O=C(O)C1OC(Oc2cc3ccccc3cc2O)C(O)C(O)C1O [Compound 2b, DHN-β-D-Glucuronide CHA Salt] | —
2 | O=C(O)C1OC(Oc2ccccc2O)C(O)C(O)C1O [Compound 1, Catechol β-D-Glucuronide CHA Salt] | —
